According to ChEMBL document CHEMBL1159168, “Unsaturated epoxy-C-glycosides. A new class of antitumor compounds with DNA cleavage properties” (Bioorg Med Chem Lett, 1994):
Several values for one entry are separate records, joined by “and”; a condition that tells them apart may be missing. Equal entries are not always repeated.

What was measured:
Raji = assay: In vitro cytotoxicity against Raji cells from human lymphoma; type: functional, cell-based
LFCl2A = assay: In vitro cytotoxicity against LFCL2A cells from rat hepatocarcinoma; type: functional, cell-based
[1] = Rattus norvegicus, LFCl2A, read-out: IC50

With `CC1=CCCCC1[C@@H]1C=C[C@@]2(CO2)[C@@H](CO)O1` (stereo not given in full) the IC50 (Raji; Homo sapiens, Raji) was 255 µM and 60.3 µg/mL.
For `C[C@@H]1O[C@@H](CC2=CCCCC2)C=C[C@]12CO2`, the IC50 (LFCl2A; [1]) was 128 µM and the IC50 (LFCl2A; lfcl2a) was 28.3 µg/mL.
`C[C@@H]1O[C@@H](CC2=CCCCC2)C=C[C@@]12CO2` showed an IC50 (LFCl2A; [1]) of 155 µM and an IC50 (LFCl2A; lfcl2a) of 34.3 µg/mL.
With `CC/C=C\C/C=C\C/C=C\C/C=C\C/C=C\C/C=C\CCC(=O)OC[C@H]1O[C@H](C2CCCC=C2C)C=C[C@@]12CO2` (stereo in doubt; 15) the IC50 (Raji; raji) was 62 µM.
For `CC/C=C\C/C=C\C/C=C\C/C=C\C/C=C\C/C=C\CCC(=O)OC[C@H]1O[C@H](C2CCCC=C2C)C=C[C@@]12CO2` (stereo in doubt; 16), the IC50 (Raji; Homo sapiens, Raji) was 58 µM and 0.106 µg/mL.
`CCCCC/C=C\C/C=C\C/C=C\C/C=C\CCCC(=O)OC[C@H]1O[C@H](C2CCCC=C2C)C=C[C@@]12CO2` (stereo in doubt; 17) was tested, and the IC50 (Raji; raji) was 66 µM.
`CCCCC/C=C\C/C=C\C/C=C\C/C=C\CCCC(=O)OC[C@H]1O[C@H](C2CCCC=C2C)C=C[C@@]12CO2` (stereo in doubt; 18) was tested, and the IC50 (Raji; raji) was 147 µM.
Compound `O=C(O)CCCc1ccc(N(CCCl)CCCl)cc1` [CHLORAMBUCIL] has an IC50 (Raji; Homo sapiens, Raji) of 298 µM.
